Measured values as given in EPA's ToxRefDB 2.

Experiments:
[1] = test system: mouse; conditions: Prenatal developmental toxicity study, other, Injection, Intraperitoneal, dose end: 13 GD
[2] = test system: mouse; conditions: Subchronic oral toxicity in rodents, b6c3f1, Gavage/Intubation, dose end: 14 week, group: systemic
[3] = test system: rat; conditions: Prenatal developmental toxicity study, sprague dawley, Oral, Feed, dose end: 15 GD
[4] = test system: mouse; conditions: Prenatal developmental toxicity study, cd1, Oral, Water, dose end: 15 GD
[5] = test system: rat; conditions: Combined chronic toxicity/carcinogenicity; fischer; Oral; Gavage/Intubation; dose end: 2 year; group: systemic; systemic / in life observation / body weight / body weight gain
[6] = test system: mouse; conditions: Subchronic oral toxicity in rodents, b6c3f1, Feed, dose end: 14 week, group: systemic
[7] = test system: dog; conditions: Sub-acute repeat dose toxicity; beagle; Injection; Intravenous; dose end: 4 week; group: systemic; systemic / clinical chemistry / alanine aminotransferase (alt/sgpt) / alanine aminotransferase (alt/sgpt) + systemic / clinical chemistry / …
[8] = test system: rat; conditions: Subchronic oral toxicity in rodents, fischer, Gavage/Intubation, dose end: 14 week, group: systemic
[9] = test system: rabbit; conditions: Prenatal developmental toxicity study, other, Injection, Intravenous, dose end: 18 GD
[10] = test system: mouse; conditions: Carcinogenicity, b6c3f1, Oral, Gavage/Intubation, dose end: 2 year, group: systemic
[11] = test system: rat; conditions: Subchronic oral toxicity in rodents, fischer, Feed, dose end: 14 week, group: systemic
[12] = test system: rat; conditions: Subchronic oral toxicity in rodents, sprague dawley, Gavage/Intubation, dose end: 13 week, group: systemic, systemic / pathology microscopic / adrenal gland / congestion + systemic / pathology microscopic / brain / congestion + systemic / pathology…
[13] = test system: rat; conditions: Subchronic dermal toxicity, sprague dawley, Topical, dose end: 90 day, group: systemic, systemic / pathology microscopic / liver / hypertrophy
[14] = test system: rat; conditions: Prenatal developmental toxicity study, sprague dawley, Oral, Gavage/Intubation, dose end: 15 GD
[15] = test system: rat; conditions: Subchronic oral toxicity in rodents, sprague dawley, Gavage/Intubation, dose end: 90 day, group: systemic, systemic / in life observation / body weight / body weight + systemic / in life observation / body weight / body weight gain
[16] = test system: rabbit; conditions: Prenatal developmental toxicity study, new zealand white, Oral, Gavage/Intubation, dose end: 18 GD
[17] = test system: dog; conditions: Chronic toxicity, beagle, Oral, Feed, dose end: 52 week, group: systemic
[18] = test system: rat; conditions: Combined chronic toxicity/carcinogenicity, sprague dawley, Oral, Feed, dose end: 104 week, group: systemic
[19] = test system: rat; conditions: Subchronic oral toxicity in rodents, sprague dawley, Gavage/Intubation, dose end: 90 day, group: systemic
[20] = test system: mouse; conditions: Carcinogenicity; cd1; Oral; Feed; dose end: 18 month; group: systemic; systemic / in life observation / body weight / body weight
[21] = test system: rat; conditions: Subchronic oral toxicity in rodents, sprague-dawley, Gavage/Intubation, dose end: 90 day, group: systemic, systemic / in life observation / body weight / body weight gain + systemic / in life observation / clinical signs / exophthalamus + systemic…
[22] = test system: mouse; conditions: Carcinogenicity; cd1; Oral; Feed; dose end: 78 week; group: systemic; systemic / in life observation / body weight / body weight + systemic / in life observation / body weight / body weight gain
[23] = test system: rat; conditions: Combined chronic toxicity/carcinogenicity, sprague dawley, Oral, Feed, dose end: 24 month, group: systemic
[24] = group: developmental, developmental / developmental malformation / general / [other] + developmental / developmental malformation / limb / micromelia + …
[25] = group: developmental, developmental / developmental malformation / paw / digit / ectrodactyly
[26] = group: maternal, reproductive / reproductive performance / resorptions / resorptions + reproductive / offspring survival early / dead fetuses / dead fetuses
[27] = systemic / in life observation / mortality / mortality + systemic / pathology microscopic / liver / glycogen deposition + systemic / …
[28] = systemic / pathology microscopic / liver / glycogen deposition
[29] = group: developmental, systemic / in life observation / body weight / fetal weight
[30] = group: maternal, reproductive / offspring survival early / litter size / litter size + systemic / in life observation / body weight / body weight gain + …
[31] = group: maternal, systemic / in life observation / water consumption / water consumption
[32] = group: maternal, reproductive / reproductive performance / resorptions / resorptions + systemic / in life observation / body weight / body weight gain + …
[33] = systemic / in life observation / body weight / body weight + systemic / in life observation / body weight / body weight gain
[34] = systemic / in life observation / body weight / body weight + systemic / in life observation / body weight / body weight gain + systemic / …
[35] = systemic / hematology / mean corpuscular hemoglobin (mch) / mean corpuscular hemoglobin (mch)
[36] = group: developmental, developmental / developmental malformation / bone / [other] + developmental / developmental malformation / bone / supernumerary + …
[37] = group: maternal, reproductive / reproductive performance / aborted / aborted + systemic / in life observation / body weight / body weight + systemic / in …
[38] = systemic / in life observation / body weight / body weight
[39] = systemic / in life observation / body weight / body weight + systemic / in life observation / clinical signs / hyperactivity
[40] = systemic / hematology / mean corpuscular (cell) volume (mcv) / mean corpuscular (cell) volume (mcv) + systemic / hematology / mean …
[41] = systemic / hematology / neutrophils / neutrophils
[42] = group: developmental, developmental / developmental malformation / bone / [other] + systemic / in life observation / body weight / fetal weight
[43] = group: maternal, systemic / in life observation / body weight / body weight gain + systemic / in life observation / food consumption / food consumption
[44] = group: maternal, systemic / in life observation / body weight / body weight gain + systemic / in life observation / food consumption / food consumption + …
[45] = group: developmental, developmental / developmental malformation / bone / supernumerary
[46] = group: developmental, developmental / developmental malformation / bone / supernumerary + developmental / developmental malformation / bone / short supernumerary…
[47] = systemic / in life observation / clinical signs / feces, discoloration
[48] = systemic / organ weight / adrenal gland / absolute + systemic / organ weight / adrenal gland / relative to body weight + systemic / organ …
[49] = systemic / in life observation / body weight / body weight + systemic / organ weight / liver / absolute + systemic / organ weight / liver / …
[50] = systemic / clinical chemistry / aspartate aminotransferase (ast/sgot) / aspartate aminotransferase (ast/sgot)
[51] = systemic / in life observation / mortality / mortality + systemic / pathology gross / mammary gland / cyst + systemic / pathology gross / …

## Cn1c(=O)c2[nH]cnc2n(C)c1=O [Theophylline]
[1]; [24]
  LOAEL: > 200 mg/kg/day
  NOAEL: ≥ 200 mg/kg/day
[1]; [25]
  LEL: 100 mg/kg/day
  NEL: < 100 mg/kg/day
[1]; group: maternal, reproductive / reproductive performance / resorptions / resorptions
  NEL: 150 mg/kg/day
[1]; [26]
  LEL: 200 mg/kg/day
  LOAEL: > 200 mg/kg/day
  NOAEL: ≥ 200 mg/kg/day
[2]; [27]
  LOAEL: > 300 mg/kg/day
  NOAEL: ≥ 300 mg/kg/day
[2]; [28]
  LEL: 75 mg/kg/day
  NEL: < 75 mg/kg/day
[3]; [29]
  LEL: 218 mg/kg/day
  LOAEL: > 259 mg/kg/day
  NEL: 124 mg/kg/day
  NOAEL: ≥ 259 mg/kg/day
[3]; [30]
  LOAEL: > 259 mg/kg/day
  NOAEL: ≥ 259 mg/kg/day
[3]; [31]
  LEL: 124 mg/kg/day
  NEL: < 124 mg/kg/day
[4]; [29]
  LEL: 372 mg/kg/day
  LOAEL: > 396 mg/kg/day
  NEL: 282 mg/kg/day
  NOAEL: ≥ 396 mg/kg/day
[4]; [32]
  LEL: 372 mg/kg/day
  LOAEL: > 396 mg/kg/day
  NEL: 282 mg/kg/day
  NOAEL: ≥ 396 mg/kg/day
[5]
  LEL: 7.5 mg/kg/day
  LOAEL: 7.5 mg/kg/day
  NEL: < 7.5 mg/kg/day
  NOAEL: < 7.5 mg/kg/day
[6]; [33]
  LOAEL: 175 mg/kg/day
  NOAEL: < 175 mg/kg/day
[6]; [34]
  LEL: 175 mg/kg/day
  NEL: < 175 mg/kg/day
[7]
  LEL: 35 mg/kg/day
  LOAEL: > 70 mg/kg/day
  NEL: 20 mg/kg/day
  NOAEL: ≥ 70 mg/kg/day
[8]; [35]
  LEL: 37.5 mg/kg/day
  NEL: < 37.5 mg/kg/day
[8]; systemic / pathology microscopic / artery (general) / polyarteritis + systemic / hematology / mean corpuscular (cell) volume (mcv) / mean …
  LOAEL: 150 mg/kg/day
[8]; systemic / pathology microscopic / artery (general) / polyarteritis + systemic / in life observation / body weight / body weight gain + …
  NOAEL: 75 mg/kg/day
[9]; group: developmental, developmental / developmental malformation / bone / [other]
  LEL: 30 mg/kg/day
[9]; [36]
  LOAEL: > 60 mg/kg/day
  NEL: 15 mg/kg/day
  NOAEL: ≥ 60 mg/kg/day
[9]; [37]
  LOAEL: > 60 mg/kg/day
  NEL: 15 mg/kg/day
  NOAEL: ≥ 60 mg/kg/day
[9]; group: maternal, systemic / urinalysis / volume / volume
  LEL: 30 mg/kg/day
[10]; [38]
  LEL: 25 mg/kg/day
  LOAEL: 25 mg/kg/day
[10]; [39]
  NEL: 7.5 mg/kg/day
  NOAEL: 7.5 mg/kg/day
[11]; [40]
  LOAEL: 125 mg/kg/day
  NOAEL: 75 mg/kg/day
[11]; [41]
  LEL: 75 mg/kg/day
  NEL: < 75 mg/kg/day

## ClNc1nc(NCl)nc(NCl)n1 [Trichloromelamine]
[12]
  LEL: 150 mg/kg/day
  LOAEL: 150 mg/kg/day
  NEL: 30 mg/kg/day
  NOAEL: 30 mg/kg/day

## CC(=O)N(CCN(C(C)=O)C(C)=O)C(C)=O [Tetraacetylethylenediamine]
[13]
  LEL: 2000 mg/kg/day
  LOAEL: > 2000 mg/kg/day
  NEL: 200 mg/kg/day
  NOAEL: ≥ 2000 mg/kg/day
[14]; [42]
  LEL: 1000 mg/kg/day
  LOAEL: 1000 mg/kg/day
  NEL: 200 mg/kg/day
  NOAEL: 200 mg/kg/day
[14]; [43]
  LEL: 200 mg/kg/day
  LOAEL: 200 mg/kg/day
[14]; [44]
  NEL: 40 mg/kg/day
  NOAEL: 40 mg/kg/day
[15]
  LEL: 25 mg/kg/day
  LOAEL: 25 mg/kg/day
  NEL: < 25 mg/kg/day
  NOAEL: < 25 mg/kg/day

## CC1(C)NC(=O)NC1=O [5,5-Dimethylhydantoin]
[16]; [45]
  LEL: 500 mg/kg/day
  LOAEL: 500 mg/kg/day
[16]; [46]
  NEL: 100 mg/kg/day
  NOAEL: 100 mg/kg/day
[16]; [43]
  LEL: 1000 mg/kg/day
  LOAEL: 1000 mg/kg/day
  NEL: 500 mg/kg/day
  NOAEL: 500 mg/kg/day
[17]; [47]
  LEL: 120 mg/kg/day
  NEL: < 120 mg/kg/day
[17]; [48]
  LOAEL: 1510 mg/kg/day
  NOAEL: 342 mg/kg/day
[18]; [33]
  NEL: 300 mg/kg/day
  NOAEL: 300 mg/kg/day
[18]; [34]
  LEL: 1000 mg/kg/day
  LOAEL: 1000 mg/kg/day
[19]; [49]
  LEL: 1020 mg/kg/day
  LOAEL: 1020 mg/kg/day
  NOAEL: 303 mg/kg/day
[19]; systemic / organ weight / kidney / absolute + systemic / organ weight / liver / absolute + systemic / organ weight / liver / relative to …
  NEL: 303 mg/kg/day
[20]
  LEL: 321 mg/kg/day
  LOAEL: > 1010 mg/kg/day
  NEL: 101 mg/kg/day
  NOAEL: ≥ 1010 mg/kg/day
[21]
  LEL: 1050 mg/kg/day
  LOAEL: > 1050 mg/kg/day
  NEL: 100 mg/kg/day
  NOAEL: ≥ 1050 mg/kg/day
[22]
  LEL: 1000 mg/kg/day
  LOAEL: 1000 mg/kg/day
  NEL: 300 mg/kg/day
  NOAEL: 300 mg/kg/day
[23]; [50]
  LEL: 100 mg/kg/day
  NEL: < 100 mg/kg/day
[23]; [51]
  LOAEL: 1000 mg/kg/day
  NOAEL: 320 mg/kg/day
